The record followed here is the METLIN SMRT retention time set (Domingo-Almenara et al. 2019).

A short description of the data set: gradient 5% acetonitrile 3 min, to 50% in 2 min, to 85% in 15 min, held 3 min, 100 µL/min. To be noted: column: Zorbax Extend-C18 2.1 x 50 mm; eluents: water / acetonitrile, 0.1% formic acid. A digest of the protocol: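 Pure standards were analyzed in mixtures of ~100 molecules using HPLC coupled to a quadrupole time-of-flight mass spectrometer, in both positive and negative ionization mode. Separation used a Zorbax Extend-C18 column (2.1 × 50 mm, 1.8 μm) at 100 μL/min, with water and acetonitrile each containing 0.1% formic acid. Dead and dwell volumes were 40 μL and 900 μL, and data were collected over 3 months. Retention time was read from computationally picked adduct peaks, each inspected manually.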
`O=C(NCCC1=CCCCC1)C1CCN(C(=O)c2ncn3c2COC(c2ccc(F)cc2)C3)CC1` (centres undefined) displayed an RP-LC retention time of 849 s. To `O=C(NCCc1ccsc1)C(=O)NCC(F)(F)F` belongs 756 s; to `CCn1cc(-c2ccc(OC)cc2)cc1C(=O)N1CCCN(C)CC1`, 627 s; to `Cc1ccc(-c2nnc(N3CCC(C(=O)NCc4ccc(C)o4)CC3)o2)cc1`, 853 s. To `CCNC(=O)c1nc2cc(C)c(C)cc2n(CC)c1=O` belongs 745 s; to `Cc1nc2cc(-c3noc(/C=C/c4ccco4)n3)ccc2n(C2CCCC2)c1=O`, 1280 s; to `Cc1cc(Cl)ccc1OCC(=O)Nc1nc(-c2ccc(Br)cc2)cs1`, 1310 s.

Consider `Cc1ccc2c(c1)N(S(C)(=O)=O)CCC(C(=O)NCc1ccccc1)O2` (centres undefined), for which the RP-LC retention time is 875 s. To `CCc1ccccc1NC(=O)N1CCC2(CC1)NC(=O)c1cc(F)ccc1N2C` belongs 791 s. To `Cn1nc(-c2nncn2CC2CC2)c2c1CCN(C(=O)CC1CCCC1)C2` belongs 753 s; to `Cc1cccc2c(C(=O)NC(C)C)cc(N3CCCC3)nc12`, 611 s. Then `O=C(NCc1ccc2c(c1)OCO2)C1CCCN(c2ncc(-c3ccc(F)cc3)cn2)C1` (centres undefined), with 998 s. Molecule `O=C(NCc1ccccc1Cl)C1CCN(C(=O)c2sccc2-n2cccc2)CC1` registered an RP-LC retention time of 863 s. Then `CC(C)n1c(=O)sc2cc(S(=O)(=O)N3CCC(C(=O)NCC4CCCO4)CC3)ccc21` (centres undefined), with 762 s; and `O=C(CCc1ccccc1)Nc1cnn(-c2ncncc2N2CCCC2)c1`, with 702 s; and `O=C(NCCC1=CCCCC1)c1ccc2c(c1)NC(=O)C1CCCCN21` (centres undefined), with 930 s. To `CCOC(=O)c1cc(S(=O)(=O)N2CCCC2C(=O)Nc2cccc(F)c2)cn1C` (centres undefined) belongs 938 s; to `O=C(c1ccc(N2CCCC2)nn1)N1CCN(c2ncccn2)CC1`, 548 s. Then `COc1ccc(Cl)cc1S(=O)(=O)N1CCC(C(=O)NCCC2=CCCCC2)CC1`, with 994 s; and `CCOc1ccc(CNCCSc2nnnn2C)cc1Cl`, with 618 s; and `Cc1cnc(C(=O)NC2C[C@H]3CC[C@@H](C2)N3C(=O)c2cnc(C)cn2)cn1` (some centres undefined), with 584 s. As for `Cc1ccccc1Nc1c(-c2ccccc2)nc2ccc(Cl)cn12`, the RP-LC retention time amounted to 869 s. To `CCOc1ccccc1C1NC(=O)N(CC(=O)NC2CCCC2)C2=C1C(=O)OC2` (centres undefined) belongs 737 s. `Cc1ccccc1-c1nnc(CSc2ccc(N)cc2)o1` gave an RP-LC retention time of 818 s. The molecule `CCCCOc1ccc2c(=O)c3ccc(O)cc3oc2c1` displayed an RP-LC retention time of 928 s. Then `CCN(CC)C(=O)c1ccc2oc(CN3CCN(C(=O)NC(C)(C)C)CC3)nc2c1`, with 628 s; and `CCOCCCNC(=O)N1[C@H]2CC[C@@H]1c1cnc(-c3ccc(F)cc3)nc1C2`, with 800 s. Then `Cc1ccc(C(=O)N2CCC3(CC2)N=C(c2ccc(Cl)cc2)NO3)cc1`, with 895 s. Then `CC(C)Cc1cc(-c2nn3c(-c4ccc(Br)cc4)nnc3s2)n[nH]1`, with 1150 s; and `O=C(CCNc1c(-c2cccc(F)c2)nc2cnccn12)NCc1ccc(F)cc1F`, with 776 s. `Cc1ccccc1CNC(=O)C1=C2CCCN2c2ccccc2S1(=O)=O` came in with an RP-LC retention time of 873 s. To `Cc1ccc(C)c(NC(=O)C2CCCN(c3nnc(C)c4c(C)n(-c5ccccc5)nc34)C2)c1` (centres undefined) belongs 776 s; to `COc1cc(C2CC(=O)N(CC(=O)NCC3CCCO3)c3ccccc3S2)cc(OC)c1OC` (centres undefined), 772 s; to `COc1cc(NC(=O)c2cnc(-c3ccccc3)nc2-c2ccncc2)cc(OC)c1`, 879 s. `Cc1cccc(CNS(=O)(=O)c2ccc3c(c2)CCCC(=O)N3)c1` yielded an RP-LC retention time of 754 s. As for `CCn1cnc(S(=O)(=O)N2CCC(C(=O)Nc3ccc4c(c3)OCCO4)CC2)c1`, the RP-LC retention time came out at 681 s. Then `CC1CCN(c2cc(-n3cnc(C(=O)N4CCC(N5CCCCC5)CC4)c3)ncn2)CC1`, with 662 s; and `CCN1C(=O)COc2ccc(-c3noc(CNS(=O)(=O)c4ccc(F)cc4)n3)cc21`, with 860 s.

In the case of `O=C(Nc1ncc(Cc2ccc(F)cc2)s1)c1ccc([N+](=O)[O-])cc1`, the RP-LC retention time turned out to be 937 s.

As to `CN(C)C(=O)c1ccc2c(c1)N(CC(=O)NCCCc1ccccc1)C(=O)CS2`, the RP-LC retention time was 726 s. Then `Cc1ccc(N2CC(c3nc(-c4ccc(N(C)C)cc4)no3)CC2=O)cc1Cl` (centres undefined), with 1160 s; and `Cc1ccc(C(=O)N2CCCC(COc3ccc(C(=O)N4CCOCC4)cc3)C2)cc1` (centres undefined), with 793 s; and `Cc1ccc(-c2ncc(NC(=O)c3ccc(Cl)s3)cn2)cc1`, with 1140 s.

As to `COc1ccccc1N1CCN(c2ncc(C(=O)O)c(C(C)C)n2)CC1`, the RP-LC retention time stood at 911 s.

The molecule `COc1ncc(C(=O)Nc2cc(C)ccc2F)c(C)n1` displayed an RP-LC retention time of 756 s.

Molecule `O=C(c1ccc(Br)cc1)N1CC2C3CCC(O3)C2C1` (centres undefined) showed an RP-LC retention time of 838 s. Then `Cn1nc(-c2nnc(-c3ccc(F)cc3)o2)c2c1CCN(S(=O)(=O)c1ccc(C#N)cc1)C2`, with 894 s; and `O=C(CN1C(=O)CSc2cccn2-c2ccccc21)NCCC1=CCCCC1`, with 1030 s.

Take `Cc1cc(C)nc(Nc2nc(C(=O)N3CCN(C(=O)c4ccco4)CC3)cs2)n1`: the RP-LC retention time is 665 s. Then `CCN1C=C(C(=O)OCc2c(C)noc2C)C(C)=NS1(=O)=O`, with 831 s. To `COc1cccc(CNC(=O)c2cn3cc(C)ccc3n2)c1OC` belongs 541 s. Turning to `CCC1CCCCN1C(=O)c1cnc2nc(C)ccc2c1Nc1ccc(F)cc1C` (centres undefined), the RP-LC retention time is 703 s. In turn, `O=C(CC1CCCCC1)N1CCCC(COc2ccc(C(=O)N3CCOCC3)cc2)C1` (centres undefined) showed an RP-LC retention time of 856 s.

`COc1cccc(CNC(=O)C2(c3ccc(NC(=O)C(C)C)cc3)CCCCC2)c1` had an RP-LC retention time of 950 s. Molecule `Cc1nnc(SCC(=O)NCCc2ccccc2)s1` registered an RP-LC retention time of 650 s. To `COCc1noc(C2CN(C(=O)CC(F)(F)F)CC23CCCC3)n1` (centres undefined) belongs 798 s; to `COc1cccc(-c2noc(CN3C(=O)C(C)Oc4ccccc43)n2)c1` (centres undefined), 1060 s; to `COc1ccc(F)cc1S(=O)(=O)N1CC(F)(F)C[C@H]1CN1CCc2ccccc2C1`, 739 s. To `CCN(CC)CCNC(=O)c1cc(S(C)(=O)=O)ccc1OC` belongs 617 s.

As to `Cn1cc(CN2CCC(C(=O)NC3CCCCC3)CC2)c2cc(Cl)ccc21`, the RP-LC retention time was determined as 702 s. To `COc1cccc(N2CC(C(=O)N3CC(c4nc(Cc5ccccc5)no4)C3)CC2=O)c1` (centres undefined) belongs 776 s; to `CC(C(=O)NN1CCOCC1)n1nc(-c2ccco2)ccc1=O` (centres undefined), 584 s; to `Cc1cc(C)cc(NC(=O)c2cccn2Cc2noc(C)n2)c1`, 928 s. Then `COc1ccc(-c2cc3nn(CC(=O)Nc4ccc(F)cc4Cl)c(=O)n3c(C)n2)cc1`, with 970 s; and `O=C(NCC1CCCCC1)c1ccc(NC(=O)C2CCC2)cc1N1CCOCC1`, with 930 s. Then `Cc1ccc(NC(=O)N2CCC(n3cnc4cc(Cl)ccc4c3=O)CC2)cc1`, with 856 s. For `Cc1ccc(-c2nc(Nc3ccccc3Cl)sc2CC(=O)O)cc1`, the RP-LC retention time amounted to 1040 s. Then `CN(CCc1noc(-c2ccc(C(=O)N3CCCC3)cc2)n1)C(=O)c1c(F)cccc1F`, with 784 s. Then `O=C(C1CCCN(c2ncnc3c2nc2n3CCCCC2)C1)N1CCCc2ccccc21` (centres undefined), with 888 s; and `CNc1ccc2oc(C[C@H]3O[C@@]4(CC[C@H]3C)O[C@H]([C@H](C)C(=O)c3ccc[nH]3)[C@H](C)C[C@H]4C)nc2c1C(=O)O`, with 1030 s; and `COc1cccc(Cn2nc3ccc(S(=O)(=O)N4CCC(C)CC4)cn3c2=O)c1`, with 900 s.

For `CN(CCNC(=O)C1CCCN(c2nn3c(=O)c4c(nc3s2)CCCC4)C1)Cc1ccccc1` (centres undefined), the RP-LC retention time worked out at 624 s. Then `CC(=O)N1CCc2cc(N3CC(C(=O)Nc4cccc(OC(F)(F)F)c4)CC3=O)ccc21` (centres undefined), with 806 s; and `COc1cccc(CC(=O)NC(CC(C)C)C(=O)Nc2nc3ccccc3[nH]2)c1` (centres undefined), with 721 s; and `COC(=O)c1c(NCc2ccccc2Cl)c2ccccc2[nH]c1=O`, with 766 s. Then `COc1cccc(NC(=O)CC(=O)Nc2ccc3nc4n(c(=O)c3c2)CCCCC4)c1`, with 1210 s.

Turning to `O=C([C@@H]1C[C@H](F)CN1S(=O)(=O)Cc1ccccc1Cl)N1CCc2ccccc2C1`, the RP-LC retention time was 986 s. On to `Cc1ccc(C)c(-c2nc(-c3ccc4c(c3)oc(=O)n4C)no2)c1`, for which the RP-LC retention time is 1220 s. `CCn1c(=O)sc2cc(S(=O)(=O)N3CCC(C(=O)Nc4ccc(Cl)cc4C)CC3)ccc21` gave an RP-LC retention time of 980 s.
